Results reported in US11912679B2, “Aryl alkynamide derivatives” (Astellas Pharma, Inc., priority 2022, dated 2024).

Tested on: IRF pathway of THP-1
Experiment: Test on the activity of IRF pathway of THP-1 (THP1-Dual reporter cells stimulated with 2'3'-cGAMP)
Type: cell-based
Settings: Homo sapiens, PMA-treated, 2'3'-cGAMP 5 ug/mL, QUANTI-Luc readout, read-out: IC50 of inhibition of the activity of IRF pathway
Procedure: 0.3 uM of PMA (phorbol myristate acetate, SIGMA, P1585) was added to THP1-Dual™ cells (NF-κB-SEAP IRF-Luc Reporter Monocytes, Invivogen, thpd-nfis), and the cells were cultured at 37° C. for 1 day in RPMI1640 with 10% Fetal Bovine Serum (FBS). A compound with a known concentration was added, and the cells were incubated at room temperature for 1 hour. Mammalian (non-canonical) CDN, cyclic [G(2′,5′)pA(3′,5′)p] (2′3′-cGAMP, Invivogen, tlrl-nacga23) was added to a final concentration of 5 ug/mL, and the cells were cultured at 37° C. On the following day, QUANTI-Luc™ (Secreted luciferase detection medium, Invivogen, rep-qlc) was added to the culture solution and the activity of IRF pathway was measured using a microplate reader. The inhibition ratio at each concentration was determined, where the activity of IRF pathway with no addition of the test compound or 2′3′-cGAMP was defined as 100% inhibition and the activity of IRF pathway with no addition of the test compound and with addition of 2′3′-cGAMP was defined as 0% inhibition. The IC50 value was calculated by sigmoid […] model non-linear regression analysis.

| Compound | IC50 |
| --- | --- |
| CN1CCN(C(=O)C#Cc2ccccc2-c2ccccc2)CC1 [Example 1, 3-([1,1′-biphenyl]-2-yl)-1-(4-methylpiperazin-1-yl)prop-2-yn-1-one] | 13400 nM |
| CN1CCN(C(=O)C#Cc2cccc(-c3ccccc3)c2)CC1 [Example 2] | 1090 nM |
| CN1CCN(C(=O)C#Cc2ccc(-c3ccccc3)cn2)CC1 [Example 4] | 236 nM |
| CN1CCN(C(=O)C#Cc2ccc(-c3ccccc3)nc2)CC1 [Example 5] | 950 nM |
| CN1CCN(C(=O)C#Cc2cnn(-c3ccccc3)c2C(F)(F)F)CC1 [Example 6] | 4820 nM |
| CN1CCN(C(=O)C#Cc2cn(-c3ccccc3)nc2C(F)(F)F)CC1 [Example 7] | 2060 nM |
| CN1CCN(C(=O)C#Cc2ccc(-n3cccn3)cc2)CC1 [Example 8] | 7750 nM |
| O=C(C#Cc1ccc(-c2ccccc2)c(C(F)(F)F)c1)N[C@H]1COC[C@@H]1O [Example 10] | 182 nM |
| O=C(C#Cc1ccc(-c2ccccc2)c(C(F)(F)F)c1)N[C@H]1CCNC1=O [Example 12] | 385 nM |
| O=C(C#Cc1ccc(-c2ccccc2)c(C(F)(F)F)c1)N1CCN(C2CC2)CC1 [Example 13] | 1540 nM |
| O=C(C#Cc1ccc(-c2ccccc2)c(C(F)(F)F)c1)N1CCN(C2COC2)CC1 [Example 14] | 374 nM |
| CC(C)N1CCN(C(=O)C#Cc2ccc(-c3ccccc3)c(C(F)(F)F)c2)CC1 [Example 15] | 237 nM |
| O=C(C#Cc1ccc(-c2ccccc2)c(C(F)(F)F)c1)N1CCN(C2CCS(=O)(=O)C2)CC1 (stereo not drawn) [Example 16] | 229 nM |
| O=C(C#Cc1ccc(-c2ccccc2)c(C(F)(F)F)c1)N[C@@H]1COC[C@H]1O [Example 17] | 233 nM |
| O=C(C#Cc1ccc(C2=CCOCC2)c(C(F)(F)F)c1)N1C[C@@H](O)[C@@H](O)C1 [Example 18] | 1410 nM |
| CN1CCN(C(=O)C#Cc2ccc(-c3ccccc3)cc2)CC1 [Example 19] | 1390 nM |
| NC(=O)[C@@H]1CCN(C(=O)C#Cc2ccc(-c3ccccc3)c(C(F)(F)F)c2)C1 [Example 20, (3R)-1-{3-[2-(trifluoromethyl)[1,1′-biphenyl]-4-yl]prop-2-ynoyl}pyrrolidine-3-carboxamide] | 244 nM |
| O=C(C#Cc1ccc(-c2ccccc2)c(C(F)(F)F)c1)N1CCOCC1 [Example 21] | 295 nM |
| O=C(C#Cc1ccc(-c2ccccc2)c(C(F)(F)F)c1)N1CCSCC1 [Example 22] | 210 nM |
| O=C(C#Cc1ccc(-c2ccccc2)c(C(F)(F)F)c1)N1CCC(O)(CO)CC1 [Example 26] | 299 nM |
| NC(=O)[C@H]1CCN(C(=O)C#Cc2ccc(-c3ccccc3)c(C(F)(F)F)c2)C1 [Example 27] | 216 nM |
| NS(=O)(=O)CCNC(=O)C#Cc1ccc(-c2ccccc2)c(C(F)(F)F)c1 [Example 30] | 159 nM |
| CS(=O)(=O)NCCCNC(=O)C#Cc1ccc(-c2ccccc2)c(C(F)(F)F)c1 [Example 32] | 178 nM |

| Compound | IC50 |
| --- | --- |
| NC(=O)N1CCN(C(=O)C#Cc2ccc(-c3ccccc3)c(C(F)(F)F)c2)CC1 [Example 37] | 195 nM |
| O=C(C#Cc1ccc(-c2ccccc2)c(C(F)(F)F)c1)NC(CO)CO [Example 39] | 351 nM |
| O=C(C#Cc1ccc(-c2ccc(OC(F)(F)F)cc2)c(C(F)(F)F)c1)NC[C@@H](O)CO [Example 40] | 422 nM |
| O=C(C#Cc1ccc(-c2ccc(OC(F)(F)F)cc2)c(C(F)(F)F)c1)NC[C@H](O)CO [Example 41] | 792 nM |
| O=C(C#Cc1ccc(-c2ccccc2)c(C(F)(F)F)c1)N1CC(O)C1 [Example 42] | 158 nM |
| O=C(C#Cc1cnc(-c2ccccc2)c(C(F)(F)F)c1)N1C[C@@H](O)[C@@H](O)C1 [Example 47, 1-[(3R,4S)-3,4-dihydroxypyrrolidin-1-yl]-3-[6-phenyl-5-(trifluoromethyl)pyridin-3-yl]prop-2-yn-1-one] | 277 nM |
| NC(=O)CNC(=O)C#Cc1ccc(-c2ccccc2)c(C(F)(F)F)c1 [Example 49] | 231 nM |
| O=C(C#Cc1ccc(-c2ccccc2)c(C(F)(F)F)c1)N(CCO)C1CCOCC1 [Example 51] | 184 nM |
| O=C(C#Cc1ccc(-c2ccccc2)c(C(F)(F)F)c1)N(CCO)C1CC1 [Example 52] | 442 nM |
| CC(C)N(CCO)C(=O)C#Cc1ccc(-c2ccccc2)c(C(F)(F)F)c1 [Example 53] | 550 nM |
| O=C(C#Cc1ccc(-c2cccc(OC(F)F)c2)c(C(F)(F)F)c1)N1C[C@H](O)[C@@H](O)C1 [Example 56] | 256 nM |
| O=C(C#Cc1ccc(-c2cccc(OC(F)F)c2)c(C(F)(F)F)c1)N[C@H]1COC[C@@H]1O [Example 57] | 381 nM |
| O=C(C#Cc1ccc(-c2cccc(OC(F)F)c2)c(C(F)(F)F)c1)N[C@@H]1COC[C@H]1O [Example 58] | 441 nM |
| O=C(C#Cc1ccc(-c2ccccc2)c(C(F)(F)F)c1)N[C@@H]1COC[C@@H]1O [Example 59] | 444 nM |
| O=C(C#Cc1ccc(-c2ccccc2)c(C(F)(F)F)c1)N[C@H]1COC[C@H]1O [Example 60] | 528 nM |
| O=C(C#Cc1ccc(-c2ccc(OC(F)F)cc2)c(C(F)(F)F)c1)N1C[C@@H](O)[C@H](O)C1 [Example 61] | 611 nM |
| O=C(C#Cc1ccc(-c2ccc(OC(F)F)cc2)c(C(F)(F)F)c1)N[C@H]1COC[C@@H]1O [Example 62] | 594 nM |
| O=C(C#Cc1ccc(-c2ccc(OC(F)F)cc2)c(C(F)(F)F)c1)N[C@@H]1COC[C@H]1O [Example 63] | 422 nM |
| O=C(C#Cc1ccc(-c2cccc(OC(F)F)c2)c(C(F)(F)F)c1)N1C[C@@H](O)[C@@H](O)C1 [Example 64] | 448 nM |
| O=C(C#Cc1ccc(-c2cccc(OC(F)F)c2)c(C(F)(F)F)c1)N1C[C@@H](O)[C@H](O)C1 [Example 65] | 340 nM |
| O=C(C#Cc1ccc(-c2ccccc2OC(F)(F)F)c(C(F)(F)F)c1)NCCO [Example 69] | 190 nM |
| O=C(C#Cc1ccc(-c2ccccc2OC(F)(F)F)c(C(F)(F)F)c1)N[C@@H]1COC[C@@H]1O [Example 72] | 1210 nM |

More lines, in order of falling IC50, values ahead:

| IC50 | Compound |
| --- | --- |
| 158 nM | NC(=O)[C@@H]1[C@@H](O)CCN1C(=O)C#Cc1ccc(-c2ccccc2)c(C(F)(F)F)c1 [Example 25] |
| 155 nM | CN1CCN(C(=O)C#Cc2ccc(-c3ccccc3)c(C(F)(F)F)c2)CC1 [Example 3] |
| 153 nM | CN(CC(N)=O)C(=O)C#Cc1ccc(-c2ccccc2)c(C(F)(F)F)c1 [Example 29] |
| 146 nM | O=C(C#Cc1ccc(-c2ccccc2)c(C(F)(F)F)c1)N[C@@H]1CCNC1=O [Example 11] |
| 121 nM | NC(=O)[C@@H]1CCCN1C(=O)C#Cc1ccc(-c2ccccc2)c(C(F)(F)F)c1 [Example 24] |
| 116 nM | O=C(C#Cc1ccc(-c2ccccc2)c(C(F)(F)F)c1)N1CC(O)(CO)C1 [Example 9] |
| 115 nM | CS(=O)(=O)NCCNC(=O)C#Cc1ccc(-c2ccccc2)c(C(F)(F)F)c1 [Example 31] |
| 99 nM | O=C(C#Cc1ccc(-c2ccccc2OC(F)(F)F)c(C(F)(F)F)c1)N[C@H]1COC[C@H]1O [Example 73] |
| 95 nM | NC(=O)[C@@H]1C[C@H](O)CN1C(=O)C#Cc1ccc(-c2ccccc2)c(C(F)(F)F)c1 [Example 28] |
| 91 nM | NC(=O)[C@H]1CCCN1C(=O)C#Cc1ccc(-c2ccccc2)c(C(F)(F)F)c1 [Example 23] |
| 91 nM | O=C(C#Cc1ccc(-c2ccccc2)c(C(F)(F)F)c1)N(CCO)c1ccccc1 [Example 48] |
| 89 nM | NC(=O)[C@H](CO)NC(=O)C#Cc1ccc(-c2ccccc2)c(C(F)(F)F)c1 [Example 45, N^2-{3-[2-(trifluoromethyl)[1,1′-biphenyl]-4-yl]prop-2-ynoyl}-L-serinamide] |
| 88 nM | O=C(C#Cc1ccc(-c2ccccc2)c(C(F)(F)F)c1)N1CCS(=O)(=O)CC1 [Example 38] |
| 83 nM | Cn1cc(N(CCO)C(=O)C#Cc2ccc(-c3ccccc3)c(C(F)(F)F)c2)cn1 [Example 55] |
| 73 nM | O=C(C#Cc1ccc(-c2ccccc2OC(F)(F)F)c(C(F)(F)F)c1)NC[C@H](O)CO [Example 75] |
| 70 nM | O=C(C#Cc1ccc(-c2ccccc2)c(C(F)(F)F)c1)N1CCS(=O)(=O)CC1CO (racemic) [Example 128, rac-(3R)-3-(hydroxymethyl)-4-{3-[2-(trifluoromethyl)[1,1′-biphenyl]-4-yl]prop-2-ynoyl}-1λ^6-thiomorpholine-1,1-dione] |
| 66 nM | COc1ccc(N(CCO)C(=O)C#Cc2ccc(-c3ccccc3)c(C(F)(F)F)c2)cn1 [Example 54] |
| 64 nM | O=C(C#Cc1ccc(-c2ccccc2OC(F)(F)F)c(C(F)(F)F)c1)N[C@@H]1COC[C@H]1O [Example 68] |
| 48 nM | NS(=O)(=O)c1cccc(NC(=O)C#Cc2ccc(-c3ccccc3)c(C(F)(F)F)c2)c1 [Example 50] |
| 48 nM | O=C(C#Cc1ccc(-c2ccccc2OC(F)(F)F)c(C(F)(F)F)c1)N1C[C@@H](O)[C@H](O)C1 [Example 66] |
| 48 nM | O=C(C#Cc1ccc(-c2ccccc2OC(F)(F)F)c(C(F)(F)F)c1)NC[C@@H](O)CO [Example 74] |
| 43 nM | O=C(C#Cc1ccc(-c2ccccc2OC(F)(F)F)c(C(F)(F)F)c1)N1C[C@@H](O)[C@@H](O)C1 [Example 71] |
| 38 nM | O=C(C#Cc1ccc(-c2ccccc2OC(F)(F)F)c(C(F)(F)F)c1)N[C@H]1COC[C@@H]1O [Example 67] |
| 35 nM | O=C(C#Cc1ccc(-c2ccccc2OC(F)(F)F)c(C(F)(F)F)c1)N1C[C@H](O)[C@@H](O)C1 [Example 70] |
